# Several values for one entry are separate records, joined by “and”; a condition that tells them apart may be missing. Equal values may be shown once. Toxic doses and inconclusive results are not listed.
# Tested on: CD2F1 mice, L1210 leukemia ip, survival T/C
# Assay: NCI In Vivo Anticancer Drug Screen. Data for tumor model L1210 Leukemia (intraperitoneal) in CD2F1 (CDF1) mice
# Conditions: higher = longer survival
# Summary of the method: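 Activity against a transplanted murine tumor was judged by comparing the compound group with a vehicle group. The outcome in the treated animals was divided by that in the controls.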
compound,measurement,setting,value
O=c1n(CC2CO2)c(=O)n(CC2CO2)c(=O)n1CC1CO1 (centres undefined),T/C,"endpoint: mean survival time, dose: 6.25 mg/kg/injection, schedule: Q01DX009 (ip), vehicle: suspension in saline",206 % of control and 123 % of control
same,T/C,"endpoint: mean survival time, dose: 12.5 mg/kg/injection, schedule: Q01DX009 (ip), vehicle: saline with Tween-80",166 % of control and 157 % of control
same,T/C,"endpoint: mean survival time, dose: 12.5 mg/kg/injection, schedule: Q01DX009 (ip), vehicle: suspension in saline",162 % of control
same,T/C,"endpoint: mean survival time, dose: 20.0 mg/kg/injection, schedule: Q01DX009 (ip), vehicle: saline",178 % of control
same,T/C,"endpoint: mean survival time, dose: 25.0 mg/kg/injection, schedule: Q01DX009 (ip), vehicle: saline with Tween-80",291 % of control
same,T/C,"endpoint: mean survival time, dose: 25.0 mg/kg/injection, schedule: Q01DX009 (ip), vehicle: saline",151 % of control and 177 % of control and 158 % of control
same,T/C,"endpoint: mean survival time, dose: 25.0 mg/kg/injection, schedule: Q01DX009 (ip), vehicle: suspension in saline",276 % of control and 152 % of control
same,T/C,"endpoint: mean survival time, dose: 25.0 mg/kg/injection, schedule: Q04DX003 (ip), vehicle: saline",182 % of control
same,T/C,"endpoint: mean survival time, dose: 25.0 mg/kg/injection, schedule: Q04DX005 (ip), vehicle: saline",165 % of control
same,T/C,"endpoint: mean survival time, dose: 30.0 mg/kg/injection, schedule: Q01DX009 (ip), vehicle: saline",164 % of control
same,T/C,"endpoint: mean survival time, dose: 30.0 mg/kg/injection, schedule: Q01DX010 (ip), vehicle: saline",166 % of control
same,T/C,"endpoint: mean survival time, dose: 40.0 mg/kg/injection, schedule: Q01DX009 (ip), vehicle: saline",300 % of control and 109 % of control
same,T/C,"endpoint: mean survival time, dose: 40.0 mg/kg/injection, schedule: Q01DX010 (ip), vehicle: saline",195 % of control
same,T/C,"endpoint: mean survival time, dose: 50.0 mg/kg/injection, schedule: Q01DX001 (ip), vehicle: saline",160 % of control and 205 % of control
same,T/C,"endpoint: mean survival time, dose: 50.0 mg/kg/injection, schedule: Q01DX009 (ip), vehicle: saline with Tween-80",170 % of control
same,T/C,"endpoint: mean survival time, dose: 50.0 mg/kg/injection, schedule: Q01DX009 (ip), vehicle: saline",151 % of control
same,T/C,"endpoint: mean survival time, dose: 50.0 mg/kg/injection, schedule: Q01DX009 (ip), vehicle: suspension in saline",94 % of control
same,T/C,"endpoint: mean survival time, dose: 50.0 mg/kg/injection, schedule: Q01DX010 (ip), vehicle: saline",219 % of control
same,T/C,"endpoint: mean survival time, dose: 50.0 mg/kg/injection, schedule: Q04DX003 (ip), vehicle: saline",187 % of control
same,T/C,"endpoint: mean survival time, dose: 50.0 mg/kg/injection, schedule: Q04DX005 (ip), vehicle: saline",259 % of control and 340 % of control
same,T/C,"endpoint: mean survival time, dose: 60.0 mg/kg/injection, schedule: Q01DX001 (ip), vehicle: saline",168 % of control and 202 % of control
same,T/C,"endpoint: mean survival time, dose: 60.0 mg/kg/injection, schedule: Q01DX009 (ip), vehicle: saline",467 % of control
same,T/C,"endpoint: mean survival time, dose: 70.0 mg/kg/injection, schedule: Q01DX001 (ip), vehicle: saline",291 % of control
same,T/C,"endpoint: mean survival time, dose: 75.0 mg/kg/injection, schedule: Q01DX009 (ip), vehicle: saline",91 % of control
same,T/C,"endpoint: mean survival time, dose: 75.0 mg/kg/injection, schedule: Q04DX003 (ip), vehicle: saline",154 % of control
same,T/C,"endpoint: mean survival time, dose: 75.0 mg/kg/injection, schedule: Q04DX005 (ip), vehicle: saline",208 % of control and 581 % of control
same,T/C,"endpoint: mean survival time, dose: 80.0 mg/kg/injection, schedule: Q01DX001 (ip), vehicle: saline",202 % of control and 351 % of control
same,T/C,"endpoint: mean survival time, dose: 80.0 mg/kg/injection, schedule: Q01DX009 (ip), vehicle: saline",104 % of control
same,T/C,"endpoint: median survival time, dose: 5.0 mg/kg/injection, schedule: Q03HX024 (ip), vehicle: saline",167 % of control
same,T/C,"endpoint: median survival time, dose: 10.0 mg/kg/injection, schedule: Q03HX008 (ip), vehicle: saline",167 % of control
same,T/C,"endpoint: median survival time, dose: 10.0 mg/kg/injection, schedule: Q03HX016 (ip), vehicle: saline",176 % of control
same,T/C,"endpoint: median survival time, dose: 10.0 mg/kg/injection, schedule: Q03HX024 (ip), vehicle: saline",212 % of control
same,T/C,"endpoint: median survival time, dose: 12.5 mg/kg/injection, schedule: Q01DX001 (ip), vehicle: saline",121 % of control
same,T/C,"endpoint: median survival time, dose: 12.5 mg/kg/injection, schedule: Q01DX001 (iv), vehicle: saline",101 % of control
same,T/C,"endpoint: median survival time, dose: 12.5 mg/kg/injection, schedule: Q01DX005 (ip), vehicle: saline",150 % of control
same,T/C,"endpoint: median survival time, dose: 12.5 mg/kg/injection, schedule: Q01DX005 (iv), vehicle: saline",113 % of control
same,T/C,"endpoint: median survival time, dose: 12.5 mg/kg/injection, schedule: Q01DX009 (oral), vehicle: saline",105 % of control
same,T/C,"endpoint: median survival time, dose: 20.0 mg/kg/injection, schedule: Q01DX009 (ip), vehicle: saline",175 % of control
same,T/C,"endpoint: median survival time, dose: 20.0 mg/kg/injection, schedule: Q03HX008 (ip), vehicle: saline",637 % of control
same,T/C,"endpoint: median survival time, dose: 20.0 mg/kg/injection, schedule: Q03HX016 (ip), vehicle: saline",172 % of control
same,T/C,"endpoint: median survival time, dose: 20.0 mg/kg/injection, schedule: Q03HX024 (ip), vehicle: saline",116 % of control
same,T/C,"endpoint: median survival time, dose: 25.0 mg/kg/injection, schedule: Q01DX001 (iv), vehicle: saline",107 % of control
same,T/C,"endpoint: median survival time, dose: 25.0 mg/kg/injection, schedule: Q01DX005 (ip), vehicle: saline",380 % of control
same,T/C,"endpoint: median survival time, dose: 25.0 mg/kg/injection, schedule: Q01DX009 (oral), vehicle: saline",110 % of control
same,T/C,"endpoint: median survival time, dose: 25.0 mg/kg/injection, schedule: Q04DX003 (ip), vehicle: saline",167 % of control
same,T/C,"endpoint: median survival time, dose: 40.0 mg/kg/injection, schedule: Q01DX005 (ip), vehicle: saline",216 % of control
same,T/C,"endpoint: median survival time, dose: 40.0 mg/kg/injection, schedule: Q01DX009 (ip), vehicle: saline",253 % of control and 750 % of control
same,T/C,"endpoint: median survival time, dose: 40.0 mg/kg/injection, schedule: Q03HX016 (ip), vehicle: saline",160 % of control
same,T/C,"endpoint: median survival time, dose: 50.0 mg/kg/injection, schedule: Q01DX001 (ip), vehicle: saline",160 % of control and 166 % of control
same,T/C,"endpoint: median survival time, dose: 50.0 mg/kg/injection, schedule: Q01DX005 (ip), vehicle: saline",750 % of control
same,T/C,"endpoint: median survival time, dose: 50.0 mg/kg/injection, schedule: Q01DX009 (ip), vehicle: saline",750 % of control
same,T/C,"endpoint: median survival time, dose: 50.0 mg/kg/injection, schedule: Q04DX003 (ip), vehicle: saline",253 % of control
same,T/C,"endpoint: median survival time, dose: 50.0 mg/kg/injection, schedule: Q04DX003 (oral), vehicle: saline",116 % of control
same,T/C,"endpoint: median survival time, dose: 50.0 mg/kg/injection, schedule: Q08DX002 (ip), vehicle: saline",187 % of control
same,T/C,"endpoint: median survival time, dose: 60.0 mg/kg/injection, schedule: Q01DX005 (ip), vehicle: saline",275 % of control
same,T/C,"endpoint: median survival time, dose: 60.0 mg/kg/injection, schedule: Q01DX009 (ip), vehicle: saline",178 % of control
same,T/C,"endpoint: median survival time, dose: 70.0 mg/kg/injection, schedule: Q01DX005 (ip), vehicle: saline",110 % of control
same,T/C,"endpoint: median survival time, dose: 100.0 mg/kg/injection, schedule: Q01DX001 (iv), vehicle: saline",100 % of control
same,T/C,"endpoint: median survival time, dose: 100.0 mg/kg/injection, schedule: Q01DX001 (oral), vehicle: saline",123 % of control
same,T/C,"endpoint: median survival time, dose: 100.0 mg/kg/injection, schedule: Q08DX002 (ip), vehicle: saline",122 % of control
same,T/C,"endpoint: median survival time, dose: 150.0 mg/kg/injection, schedule: Q01DX005 (oral), vehicle: saline",116 % of control
same,T/C,"endpoint: median survival time, dose: 200.0 mg/kg/injection, schedule: Q01DX009 (oral), vehicle: saline",151 % of control
same,T/C,"endpoint: median survival time, dose: 200.0 mg/kg/injection, schedule: Q04DX003 (oral), vehicle: saline",191 % of control
same,T/C,"endpoint: median survival time, dose: 200.0 mg/kg/injection, schedule: Q08DX002 (oral), vehicle: saline",163 % of control
same,T/C,"endpoint: median survival time, dose: 250.0 mg/kg/injection, schedule: Q01DX009 (oral), vehicle: saline",151 % of control
same,T/C,"endpoint: median survival time, dose: 250.0 mg/kg/injection, schedule: Q08DX002 (ip), vehicle: saline",160 % of control
same,T/C,"endpoint: median survival time, dose: 300.0 mg/kg/injection, schedule: Q04DX003 (oral), vehicle: saline",221 % of control and 122 % of control
same,T/C,"endpoint: median survival time, dose: 300.0 mg/kg/injection, schedule: Q08DX002 (oral), vehicle: saline",185 % of control
same,T/C,"endpoint: median survival time, dose: 350.0 mg/kg/injection, schedule: Q01DX001 (ip), vehicle: saline",151 % of control
same,T/C,"endpoint: median survival time, dose: 350.0 mg/kg/injection, schedule: Q04DX003 (oral), vehicle: saline",122 % of control
same,T/C,"endpoint: median survival time, dose: 350.0 mg/kg/injection, schedule: Q08DX002 (oral), vehicle: saline",119 % of control
same,T/C,"endpoint: median survival time, dose: 400.0 mg/kg/injection, schedule: Q04DX003 (oral), vehicle: saline",120 % of control
same,T/C,"endpoint: median survival time, dose: 450.0 mg/kg/injection, schedule: Q01DX001 (ip), vehicle: saline",160 % of control
same,T/C,"endpoint: median survival time, dose: 450.0 mg/kg/injection, schedule: Q04DX003 (oral), vehicle: saline",118 % of control
same,T/C,"endpoint: median survival time, dose: 450.0 mg/kg/injection, schedule: Q08DX002 (oral), vehicle: saline",118 % of control
same,T/C,"endpoint: median survival time, dose: 500.0 mg/kg/injection, schedule: Q08DX002 (oral), vehicle: saline",123 % of control
CCCCCCCCCCCC[NH-].CCCCCCCCCCCC[NH-].[Cl][Pt+2][Cl],T/C,"endpoint: mean survival time, dose: 6.25 mg/kg/injection, schedule: Q04DX003 (ip), vehicle: saline + alcohol",111 % of control
same,T/C,"endpoint: mean survival time, dose: 12.5 mg/kg/injection, schedule: Q04DX003 (ip), vehicle: saline + alcohol",95 % of control
same,T/C,"endpoint: mean survival time, dose: 25.0 mg/kg/injection, schedule: Q04DX003 (ip), vehicle: saline + alcohol",100 % of control
same,T/C,"endpoint: mean survival time, dose: 50.0 mg/kg/injection, schedule: Q04DX003 (ip), vehicle: saline + alcohol",103 % of control
same,T/C,"endpoint: mean survival time, dose: 100.0 mg/kg/injection, schedule: Q04DX003 (ip), vehicle: saline + alcohol",100 % of control
COc1ccc(CC2C(=O)OC(=O)C2Cc2ccc(OC)c(OC)c2)cc1OC (centres undefined),T/C,"endpoint: mean survival time, dose: 100.0 mg/kg/injection, schedule: Q01DX009 (ip), vehicle: saline with Tween-80",104 % of control
same,T/C,"endpoint: mean survival time, dose: 200.0 mg/kg/injection, schedule: Q01DX009 (ip), vehicle: saline with Tween-80",108 % of control
same,T/C,"endpoint: mean survival time, dose: 400.0 mg/kg/injection, schedule: Q01DX009 (ip), vehicle: saline with Tween-80",96 % of control

# Reference: PubChem BioAssay AID256 (DTP/NCI, 2004)
